Results published in publication PMC6886798, “Expression of myeloid Src-family kinases is associated with poor prognosis in AML and influences Flt3-ITD kinase inhibitor acquired resistance” (PLoS ONE, 2019).

Assays:
Assay in all cases: KINOMEscan
Format in all cases: binding
Conditions in all cases: 1.0 µM
AMPK-alpha1 = target: T1, AMPK-alpha1 (Homo sapiens, UniProt Q13131)
T1 construct: purchased Eurofins/DiscoverX KINOMEscan scanMAX
Experimental: (§1) Kinase retention to the immobilized ligand is then measured using quantitative real-time PCR for each kinase-specific DNA barcode.

TSSK3 = target: T2, TSSK3 (Homo sapiens, UniProt Q96PN8)
T2 construct: DNA tag (qPCR barcode); purchased Eurofins/DiscoverX KINOMEscan scanMAX
Experimental: as §1

FYN = target: T3, FYN (Homo sapiens, UniProt P06241)
T3 construct: purchased Eurofins/DiscoverX KINOMEscan scanMAX
Experimental: as §1

TRPM6 = target: T4, TRPM6 (Homo sapiens, UniProt Q9BX84)
T4 construct: DNA tag (qPCR barcode); purchased Eurofins/DiscoverX KINOMEscan scanMAX
Experimental: as §1

IRAK3 = target: T5, IRAK3 (Homo sapiens, UniProt Q9Y616)
T5 construct: purchased Eurofins/DiscoverX KINOMEscan scanMAX
Experimental: as §1

PIK3CA(E545A) = target: T6, PIK3CA(E545A) (Homo sapiens, UniProt P42336, E545A)
T6 construct: purchased Eurofins/DiscoverX KINOMEscan scanMAX
Experimental: as §1

FGFR1 = target: T7, FGFR1 (Homo sapiens, UniProt P11362)
T7 construct: purchased Eurofins/DiscoverX KINOMEscan scanMAX
Experimental: as §1

CDK2 = target: T8, CDK2 (Homo sapiens, UniProt P24941)
T8 construct: purchased Eurofins/DiscoverX KINOMEscan scanMAX
Experimental: as §1

PKN1 = target: T9, PKN1 (Homo sapiens, UniProt Q16512)
T9 construct: purchased Eurofins/DiscoverX KINOMEscan scanMAX
Experimental: as §1

ALK = target: T10, ALK (Homo sapiens, UniProt Q9UM73)
T10 construct: purchased Eurofins/DiscoverX KINOMEscan scanMAX
Experimental: as §1

[1] = target: T11, RSK3(Kin.Dom.1-N-terminal) (Homo sapiens, UniProt Q15349)
T11 construct: RSK3(Kin.Dom.1-N-terminal); purchased Eurofins/DiscoverX KINOMEscan scanMAX
Experimental: as §1

FLT4 = target: T12, FLT4 (Homo sapiens, UniProt P35916)
T12 construct: purchased Eurofins/DiscoverX KINOMEscan scanMAX
Experimental: as §1

KIT(V559D,T670I) = target: T13, KIT(V559D,T670I) (Homo sapiens, UniProt P10721, T670I/V559D)
T13 construct: purchased Eurofins/DiscoverX KINOMEscan scanMAX
Experimental: as §1

WNK2 = target: T14, WNK2 (Homo sapiens, UniProt Q9Y3S1)
T14 construct: DNA tag (qPCR barcode); purchased Eurofins/DiscoverX KINOMEscan scanMAX
Experimental: as §1

STK16 = target: T15, STK16 (Homo sapiens, UniProt O75716)
T15 construct: purchased Eurofins/DiscoverX KINOMEscan scanMAX
Experimental: as §1

BRAF = target: T16, BRAF (Homo sapiens, UniProt P15056)
T16 construct: purchased Eurofins/DiscoverX KINOMEscan scanMAX
Experimental: as §1

OSR1 = target: T17, OSR1 (Homo sapiens, UniProt O95747)
T17 construct: purchased Eurofins/DiscoverX KINOMEscan scanMAX
Experimental: as §1

PAK3 = target: T18, PAK3 (Homo sapiens, UniProt O75914)
T18 construct: purchased Eurofins/DiscoverX KINOMEscan scanMAX
Experimental: as §1

DAPK1 = target: T19, DAPK1 (Homo sapiens, UniProt P53355)
T19 construct: purchased Eurofins/DiscoverX KINOMEscan scanMAX
Experimental: as §1

FLT1 = target: T20, FLT1 (Homo sapiens, UniProt P17948)
T20 construct: purchased Eurofins/DiscoverX KINOMEscan scanMAX
Experimental: as §1

FGFR3 = target: T21, FGFR3 (Homo sapiens, UniProt P22607)
T21 construct: purchased Eurofins/DiscoverX KINOMEscan scanMAX
Experimental: as §1

ERK4 = target: T22, ERK4 (Homo sapiens, UniProt P31152)
T22 construct: purchased Eurofins/DiscoverX KINOMEscan scanMAX
Experimental: as §1

QSK = target: T23, QSK (Homo sapiens, UniProt Q9Y2K2)
T23 construct: purchased Eurofins/DiscoverX KINOMEscan scanMAX
Experimental: as §1

EPHA8 = target: T24, EPHA8 (Homo sapiens, UniProt P29322)
T24 construct: purchased Eurofins/DiscoverX KINOMEscan scanMAX
Experimental: as §1

NEK4 = target: T25, NEK4 (Homo sapiens, UniProt P51957)
T25 construct: purchased Eurofins/DiscoverX KINOMEscan scanMAX
Experimental: as §1

[2] = target: T26, JAK1(JH2domain-pseudokinase) (Homo sapiens, UniProt P23458)
T26 construct: JAK1(JH2domain-pseudokinase); purchased Eurofins/DiscoverX KINOMEscan scanMAX
Experimental: as §1

[3] = target: T27, JAK3(JH1domain-catalytic) (Homo sapiens, UniProt P52333)
T27 construct: JAK3(JH1domain-catalytic); purchased Eurofins/DiscoverX KINOMEscan scanMAX
Experimental: as §1

CDK11 = target: T28, CDK11 (Homo sapiens, UniProt Q9BWU1)
T28 construct: purchased Eurofins/DiscoverX KINOMEscan scanMAX
Experimental: as §1

NLK = target: T29, NLK (Homo sapiens, UniProt Q9UBE8)
T29 construct: purchased Eurofins/DiscoverX KINOMEscan scanMAX
Experimental: as §1

MEK4 = target: T30, MEK4 (Homo sapiens, UniProt P45985)
T30 construct: purchased Eurofins/DiscoverX KINOMEscan scanMAX
Experimental: as §1

PRKCI = target: T31, PRKCI (Homo sapiens, UniProt P41743)
T31 construct: purchased Eurofins/DiscoverX KINOMEscan scanMAX
Experimental: as §1

MERTK = target: T32, MERTK (Homo sapiens, UniProt Q12866)
T32 construct: purchased Eurofins/DiscoverX KINOMEscan scanMAX
Experimental: as §1

JNK2 = target: T33, JNK2 (Homo sapiens, UniProt P45984)
T33 construct: purchased Eurofins/DiscoverX KINOMEscan scanMAX
Experimental: as §1

MAP3K1 = target: T34, MAP3K1 (Homo sapiens, UniProt Q13233)
T34 construct: purchased Eurofins/DiscoverX KINOMEscan scanMAX
Experimental: as §1

MLK1 = target: T35, MLK1 (Homo sapiens, UniProt P80192)
T35 construct: purchased Eurofins/DiscoverX KINOMEscan scanMAX
Experimental: as §1

YSK1 = target: T36, YSK1 (Homo sapiens, UniProt O00506)
T36 construct: purchased Eurofins/DiscoverX (KINOMEscan scanMAX service)
Experimental: as §1

TNNI3K = target: T37, TNNI3K (Homo sapiens, UniProt Q59H18)
T37 construct: purchased Eurofins/DiscoverX KINOMEscan scanMAX
Experimental: as §1

MEK2 = target: T38, MEK2 (Homo sapiens, UniProt P36507)
T38 construct: purchased Eurofins/DiscoverX KINOMEscan scanMAX
Experimental: as §1

MAP3K2 = target: T39, MAP3K2 (Homo sapiens, UniProt Q9Y2U5)
T39 construct: purchased Eurofins/DiscoverX KINOMEscan scanMAX
Experimental: as §1

SRPK3 = target: T40, SRPK3 (Homo sapiens, UniProt Q9UPE1)
T40 construct: purchased Eurofins/DiscoverX KINOMEscan scanMAX
Experimental: as §1

ULK3 = target: T41, ULK3 (Homo sapiens, UniProt Q6PHR2)
T41 construct: DNA tag (qPCR barcode); purchased Eurofins/DiscoverX KINOMEscan scanMAX
Experimental: as §1

T29 sequence (Q9UBE8 whole entry): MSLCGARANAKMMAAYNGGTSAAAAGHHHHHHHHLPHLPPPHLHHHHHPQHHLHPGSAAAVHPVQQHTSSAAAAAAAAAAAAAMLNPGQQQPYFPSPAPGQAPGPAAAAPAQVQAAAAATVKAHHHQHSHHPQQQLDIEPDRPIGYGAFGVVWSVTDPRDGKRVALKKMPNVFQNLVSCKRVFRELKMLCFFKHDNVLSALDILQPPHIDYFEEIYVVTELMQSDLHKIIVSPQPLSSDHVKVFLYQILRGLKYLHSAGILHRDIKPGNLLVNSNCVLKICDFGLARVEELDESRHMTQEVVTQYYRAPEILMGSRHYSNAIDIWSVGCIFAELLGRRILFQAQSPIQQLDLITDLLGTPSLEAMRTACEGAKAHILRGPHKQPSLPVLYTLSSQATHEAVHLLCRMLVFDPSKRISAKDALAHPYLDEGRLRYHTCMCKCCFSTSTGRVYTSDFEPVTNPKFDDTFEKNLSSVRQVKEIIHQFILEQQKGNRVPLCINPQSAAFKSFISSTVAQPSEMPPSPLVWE
T20 sequence (P17948 27-1338): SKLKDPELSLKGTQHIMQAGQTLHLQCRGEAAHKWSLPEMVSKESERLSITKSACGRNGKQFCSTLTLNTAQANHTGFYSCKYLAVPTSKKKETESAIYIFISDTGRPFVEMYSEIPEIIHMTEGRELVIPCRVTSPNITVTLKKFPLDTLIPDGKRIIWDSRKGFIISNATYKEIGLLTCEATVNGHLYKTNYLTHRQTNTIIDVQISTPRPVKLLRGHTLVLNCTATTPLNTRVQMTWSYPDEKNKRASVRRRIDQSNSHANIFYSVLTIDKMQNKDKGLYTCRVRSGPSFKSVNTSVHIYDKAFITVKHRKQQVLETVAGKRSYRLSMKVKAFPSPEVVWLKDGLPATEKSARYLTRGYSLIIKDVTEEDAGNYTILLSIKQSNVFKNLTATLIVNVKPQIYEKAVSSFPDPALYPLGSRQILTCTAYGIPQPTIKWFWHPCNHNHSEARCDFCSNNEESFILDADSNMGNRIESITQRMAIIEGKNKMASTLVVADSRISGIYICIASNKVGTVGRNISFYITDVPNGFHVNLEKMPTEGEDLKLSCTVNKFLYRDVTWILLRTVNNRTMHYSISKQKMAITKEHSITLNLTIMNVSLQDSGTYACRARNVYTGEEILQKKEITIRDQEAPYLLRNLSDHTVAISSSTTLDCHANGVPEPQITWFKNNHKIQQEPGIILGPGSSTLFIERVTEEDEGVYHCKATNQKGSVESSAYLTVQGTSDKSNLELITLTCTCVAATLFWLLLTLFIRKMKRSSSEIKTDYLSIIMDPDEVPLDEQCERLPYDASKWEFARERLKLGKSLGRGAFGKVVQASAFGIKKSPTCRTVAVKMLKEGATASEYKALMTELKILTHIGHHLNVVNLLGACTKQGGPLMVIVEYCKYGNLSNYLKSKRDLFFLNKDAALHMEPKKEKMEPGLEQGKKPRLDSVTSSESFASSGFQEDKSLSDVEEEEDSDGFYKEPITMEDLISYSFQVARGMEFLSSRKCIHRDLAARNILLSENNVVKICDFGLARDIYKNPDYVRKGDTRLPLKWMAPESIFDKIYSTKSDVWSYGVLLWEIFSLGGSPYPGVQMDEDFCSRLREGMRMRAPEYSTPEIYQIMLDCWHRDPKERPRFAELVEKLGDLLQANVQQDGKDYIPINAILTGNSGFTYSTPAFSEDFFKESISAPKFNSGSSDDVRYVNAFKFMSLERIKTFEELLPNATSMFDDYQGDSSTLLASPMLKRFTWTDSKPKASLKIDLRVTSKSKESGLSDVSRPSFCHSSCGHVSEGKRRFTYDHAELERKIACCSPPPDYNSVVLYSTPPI
T4 sequence (Q9BX84 whole entry): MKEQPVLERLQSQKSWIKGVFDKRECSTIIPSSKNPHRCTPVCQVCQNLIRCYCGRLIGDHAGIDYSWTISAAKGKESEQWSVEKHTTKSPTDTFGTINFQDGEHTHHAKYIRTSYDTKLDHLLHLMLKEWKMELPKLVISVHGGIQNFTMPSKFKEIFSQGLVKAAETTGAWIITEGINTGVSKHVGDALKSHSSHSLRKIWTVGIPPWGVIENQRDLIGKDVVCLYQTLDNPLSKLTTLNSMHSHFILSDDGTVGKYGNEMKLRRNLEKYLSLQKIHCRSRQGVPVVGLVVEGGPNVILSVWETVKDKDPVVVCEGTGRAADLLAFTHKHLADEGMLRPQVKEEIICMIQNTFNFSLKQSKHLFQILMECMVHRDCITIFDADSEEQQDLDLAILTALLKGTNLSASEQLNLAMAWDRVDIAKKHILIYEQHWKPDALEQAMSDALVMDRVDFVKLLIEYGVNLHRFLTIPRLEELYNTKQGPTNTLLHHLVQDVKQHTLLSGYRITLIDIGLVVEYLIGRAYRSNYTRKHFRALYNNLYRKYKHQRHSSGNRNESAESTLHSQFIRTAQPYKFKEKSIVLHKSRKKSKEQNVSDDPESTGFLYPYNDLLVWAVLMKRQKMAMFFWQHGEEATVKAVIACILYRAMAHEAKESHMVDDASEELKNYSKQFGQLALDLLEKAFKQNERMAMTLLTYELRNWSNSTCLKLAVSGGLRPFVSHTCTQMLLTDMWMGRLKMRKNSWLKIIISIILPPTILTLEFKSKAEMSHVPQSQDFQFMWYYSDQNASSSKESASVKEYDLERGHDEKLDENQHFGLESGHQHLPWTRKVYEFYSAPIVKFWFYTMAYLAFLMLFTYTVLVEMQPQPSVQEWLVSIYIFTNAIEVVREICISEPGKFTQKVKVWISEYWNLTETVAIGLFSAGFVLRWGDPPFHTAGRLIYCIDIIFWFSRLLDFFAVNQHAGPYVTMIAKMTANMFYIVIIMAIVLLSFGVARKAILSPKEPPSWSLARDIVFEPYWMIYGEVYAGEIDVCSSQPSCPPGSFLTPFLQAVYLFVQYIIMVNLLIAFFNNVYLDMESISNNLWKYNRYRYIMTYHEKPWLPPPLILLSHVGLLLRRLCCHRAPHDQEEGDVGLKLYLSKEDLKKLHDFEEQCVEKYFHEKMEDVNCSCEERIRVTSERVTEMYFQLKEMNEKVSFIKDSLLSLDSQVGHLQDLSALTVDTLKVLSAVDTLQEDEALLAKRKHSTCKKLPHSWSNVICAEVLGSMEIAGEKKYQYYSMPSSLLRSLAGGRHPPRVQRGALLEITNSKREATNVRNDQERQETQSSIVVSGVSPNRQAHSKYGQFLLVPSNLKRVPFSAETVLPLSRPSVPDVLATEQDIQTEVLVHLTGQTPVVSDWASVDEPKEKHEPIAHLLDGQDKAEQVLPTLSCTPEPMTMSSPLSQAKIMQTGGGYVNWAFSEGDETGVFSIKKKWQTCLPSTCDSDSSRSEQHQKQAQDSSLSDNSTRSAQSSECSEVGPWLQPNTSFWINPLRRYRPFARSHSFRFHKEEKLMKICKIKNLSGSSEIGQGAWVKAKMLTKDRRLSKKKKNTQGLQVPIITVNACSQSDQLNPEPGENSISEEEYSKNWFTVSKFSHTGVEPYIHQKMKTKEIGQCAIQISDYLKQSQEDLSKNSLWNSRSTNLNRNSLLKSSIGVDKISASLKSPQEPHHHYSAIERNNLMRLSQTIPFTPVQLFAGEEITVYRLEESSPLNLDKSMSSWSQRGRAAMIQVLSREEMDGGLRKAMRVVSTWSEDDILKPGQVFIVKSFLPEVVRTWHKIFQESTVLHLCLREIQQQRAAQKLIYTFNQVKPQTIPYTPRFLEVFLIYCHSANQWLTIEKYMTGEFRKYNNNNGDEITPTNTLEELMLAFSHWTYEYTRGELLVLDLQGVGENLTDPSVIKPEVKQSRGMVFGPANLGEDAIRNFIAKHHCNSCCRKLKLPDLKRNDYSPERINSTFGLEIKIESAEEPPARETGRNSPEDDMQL
T7 sequence (P11362 22-822): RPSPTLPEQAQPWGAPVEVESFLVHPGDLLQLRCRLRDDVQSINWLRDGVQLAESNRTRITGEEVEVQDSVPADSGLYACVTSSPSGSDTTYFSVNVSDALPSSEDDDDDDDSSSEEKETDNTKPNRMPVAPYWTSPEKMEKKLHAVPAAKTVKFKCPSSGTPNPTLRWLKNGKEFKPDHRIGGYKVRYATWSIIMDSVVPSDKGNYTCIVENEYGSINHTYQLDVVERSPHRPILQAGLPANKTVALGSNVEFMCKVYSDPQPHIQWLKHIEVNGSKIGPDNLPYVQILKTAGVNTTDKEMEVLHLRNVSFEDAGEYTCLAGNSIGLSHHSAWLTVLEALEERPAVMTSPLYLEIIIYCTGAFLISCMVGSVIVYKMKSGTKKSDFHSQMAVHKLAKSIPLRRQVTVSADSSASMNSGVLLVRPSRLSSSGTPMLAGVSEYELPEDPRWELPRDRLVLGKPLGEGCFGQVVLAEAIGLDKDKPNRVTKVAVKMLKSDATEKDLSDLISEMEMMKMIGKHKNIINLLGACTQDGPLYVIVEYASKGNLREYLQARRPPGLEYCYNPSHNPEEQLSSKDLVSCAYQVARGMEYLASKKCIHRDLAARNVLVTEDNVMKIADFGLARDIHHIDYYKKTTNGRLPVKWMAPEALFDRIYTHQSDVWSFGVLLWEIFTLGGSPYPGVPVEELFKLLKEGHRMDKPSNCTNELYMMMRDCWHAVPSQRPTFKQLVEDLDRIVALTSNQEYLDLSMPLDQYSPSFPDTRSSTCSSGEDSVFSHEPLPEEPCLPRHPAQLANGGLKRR
T33 sequence (P45984 whole entry): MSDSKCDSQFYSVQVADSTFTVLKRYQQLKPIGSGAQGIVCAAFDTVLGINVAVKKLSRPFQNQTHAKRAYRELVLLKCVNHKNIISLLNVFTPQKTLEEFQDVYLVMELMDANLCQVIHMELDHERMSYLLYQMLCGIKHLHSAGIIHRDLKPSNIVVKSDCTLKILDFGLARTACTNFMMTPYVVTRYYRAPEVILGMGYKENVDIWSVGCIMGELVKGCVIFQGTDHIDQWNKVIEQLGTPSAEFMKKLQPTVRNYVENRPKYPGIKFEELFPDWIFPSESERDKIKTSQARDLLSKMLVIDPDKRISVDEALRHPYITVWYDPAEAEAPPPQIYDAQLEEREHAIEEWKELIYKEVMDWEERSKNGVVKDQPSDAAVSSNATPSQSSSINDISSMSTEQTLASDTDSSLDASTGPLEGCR

CN1CCN(C2CCC(n3cc(-c4ccc(Oc5ccccc5)cc4)c4c(N)ncnc43)CC2)CC1 (centres unmarked) [A-419259]
% Control (AMPK-alpha1): 43% | % Control (TSSK3): 95% | % Control (FYN): 5.1% | % Control (TRPM6): 100% | % Control (IRAK3): 89% | % Control (PIK3CA(E545A)): 100% | % Control (FGFR1): 1.6% | % Control (CDK2): 70% | % Control (PKN1): 88% | % Control (ALK): 29% | % Control [1]: 22% | % Control (FLT4): 19% | % Control (KIT(V559D,T670I)): 40% | % Control (WNK2): 67% | % Control (STK16): 100% | % Control (BRAF): 66% | % Control (OSR1): 100% | % Control (PAK3): 36% | % Control (DAPK1): 99% | % Control (FLT1): 29% | % Control (FGFR3): 30% | % Control (ERK4): 56% | % Control (QSK): 93% | % Control (EPHA8): 72% | % Control (NEK4): 100% | % Control [2]: 100% | % Control [3]: 65% | % Control (CDK11): 3.9% | % Control (NLK): 83% | % Control (MEK4): 89% | % Control (PRKCI): 26% | % Control (MERTK): 12% | % Control (JNK2): 94% | % Control (MAP3K1): 92% | % Control (MLK1): 88% | % Control (YSK1): 84% | % Control (TNNI3K): 91% | % Control (MEK2): 0.2% | % Control (MAP3K2): 1.7% | % Control (SRPK3): 99% | % Control (ULK3): 84%
